Calls of active or inactive are those of the source. No cut-off for these calls is given here.
Assays:
Keratinocyte [1] = assay: Cytotoxicity against human Keratinocyte incubated for 48 hrs by MTT assay; type: toxicity, cell-based
[2] = Inhibition of 6His tagged NOXO1 (149 to 286 residues) (unknown origin) expressed in Escherichia coli BL21 (DE3)-CYBA (unknown origin) protein-protein interaction assessed as apparent dissociation constant at 800 uM by isothermal titration calorimetry; parameters: species or system Homo sapiens; conditions: read-out: Kd(app)
[3] = Cytotoxicity against human Keratinocyte assessed as cell viability at 1 uM incubated for 48 hrs by MTT assay (reference value: 100 + /-7 %); type: toxicity, cell-based; conditions: keratinocytes, read-out: Activity
[4] = Cytoprotective activity in human Keratinocyte assessed as fold decrease in UV-radiation induced DNA damage preincubated for 24 hrs followed by UV exposure and measured after 24 hrs by immunohistological analysis; type: functional; conditions: time 48 hrs
Homo sapiens = species on record: Homo sapiens; assay: Inhibition of 6His tagged NOXO1 (149 to 286 residues) (unknown origin) expressed in Escherichia coli BL21 (DE3)-CYBA (unknown origin) protein-protein interaction by MALDI-TOF-MS analysis
[5] = Cytoprotective activity in human Keratinocyte assessed as decrease in UV-radiation induced DNA damage by measuring CPD intensity preincubated for 24 hrs followed by UV exposure and measured after 24 hrs by immunohistological analysis (reference value: 0.003 a.u.); type: functional; conditions: time 48 hrs
[6] = target: T1, NADPH oxidase organizer 1 (Homo sapiens) (UniProt Q8NFA2); assay: Binding affinity to 6His tagged NOXO1 (149 to 286 residues) (unknown origin) expressed in Escherichia coli BL21 (DE3) assessed as change in enthalpy at 800 uM by isothermal titration calorimetry
T1 sequence (whole entry): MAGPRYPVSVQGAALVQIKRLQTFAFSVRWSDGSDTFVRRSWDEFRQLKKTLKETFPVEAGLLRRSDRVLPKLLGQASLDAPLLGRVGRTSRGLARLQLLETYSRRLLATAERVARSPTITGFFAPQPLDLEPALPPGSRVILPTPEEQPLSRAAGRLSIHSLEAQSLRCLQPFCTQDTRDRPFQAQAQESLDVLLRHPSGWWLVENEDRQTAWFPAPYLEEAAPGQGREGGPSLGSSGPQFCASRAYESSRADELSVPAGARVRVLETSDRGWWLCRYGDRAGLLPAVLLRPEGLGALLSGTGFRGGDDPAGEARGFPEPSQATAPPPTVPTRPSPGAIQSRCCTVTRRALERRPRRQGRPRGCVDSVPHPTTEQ

Keratinocyte [7] = assay: Cytoprotective activity in human Keratinocyte assessed as effect on CPD intensity incubated for 24 hrs by immunohistological analysis; type: functional, cell-based
[8] = Inhibition of 6His tagged NOXO1 (149 to 286 residues) (unknown origin) expressed in Escherichia coli BL21 (DE3)-CYBA (unknown origin) protein-protein interaction assessed as apparent dissociation constant at 200 uM by isothermal titration calorimetry; parameters: species or system Homo sapiens; conditions: read-out: Kd(app)

Row | inhibition (Homo sapiens) | deltaH [6] [kcal/mol] | Structure (SMILES) | Activity (Keratinocyte [1]) | Kd [2] [µM] | viability at 48 h, 1 µM [3] [%] | fold change (FC) [4] | Activity [5] [a.u.] | Activity (Keratinocyte [7]) | Kd [8] [µM]
1 | – | – | NC(=O)c1cccc(-c2ccccc2NCC2CCNCC2)c1 | Non-Toxic | 4.1 | 106 | – | – | – | –
2 | Active | 5.2 | NC(=O)c1cccc(-c2ccccc2NCC2CCN(C(=O)CCOCCOCCOCCOCCNC(=O)CCCC[C@H]3SC[C@H]4NC(=O)N[C@H]43)CC2)c1 | Non-Toxic | – | 101 | 175 | 0.004 | inactive | 39
3 | – | – | COCCOCCC(=O)N1CCC(CNc2ccccc2-c2cccc(C(N)=O)c2)CC1 | – | – | – | – | – | – | 44
4 | – | – | COCCOCCC(=O)N(C)Cc1ccccc1 | – | – | – | – | – | – | 2.3

Source: ChEMBL document CHEMBL5257083, “Identification of a Noxo1 inhibitor by addition of a polyethylene glycol chain” (Bioorg Med Chem, 2023)
